Assays:
dogs [1] = conditions: medetomidine 20 μg/kg IM or 10 μg/kg IV alone (Rolfe 2012); cited from earlier work
dogs [2] = conditions: MK-467 250, 500, 750 μg/kg with dexmedetomidine 10 μg/kg IV (Restitutti 2011); cited from earlier work
[3] = Plasma concentrations of butorphanol and midazolam in dogs after IM administration of composition with or without MK-467; conditions: for Peak plasma concentration / Time at which peak plasma concentration was reached from the IM administration: IM
Experimental: Plasma Concentrations of Butorphanol and Midazolam in Dogs after IM Administration of a Composition Comprising MK-467, Butorphanol, Midazolam and Medetomidine, Compared with Composition without MK-467
A liquid aqueous composition comprising MK-467, butorphanol tartrate, midazolam and medetomidine was administered to a dog intramuscularly (IM) to provide a dosage of MK-467 500 μg/kg, butorphanol 100 μg/kg, midazolam 200 μg/kg and medetomidine 20 μg/kg.
Five purpose-bred, adult beagles were used for this study.
Study design: A prospective, randomized, experimental cross-over study.
Each dog was treated for two times with a 14-day wash-out period:
Treatment 1. medetomidine (20 μg/kg)+butorphanol (100 μg/kg)+midazolam (0.2 mg/kg)
Treatment 2. medetomidine (20 μg/kg)+MK-467 (MK) (500 μg/kg)+butorphanol (100 μg/kg)+midazolam (0.2 mg/kg).
For treatment 1. 1 mL of medetomidine (Dorbene 1 mg/mL) was diluted with 1 mL of saline. For treatment 2. 25 mg of MK-467 was mixed with 1 mL of medetomidine, and 1 mL of saline was added. The mixture, butorphanol (Torpudor 10 mg/mL) and midazolam (Midazolam Hameln 5 mg/mL) were aspirated into a single syringe. The end volume of the injectable in both treatments was 0.09 mL/kg.
Dog was positioned laterally and the drugs were injected IM into the epaxial muscle. Central venous blood was sampled into EDTA-tubes at 0, 3, 6, 10, 15, 20, 25, 30, 40, 50, 60 and 90 minutes after drug administration. The plasma concentrations were analyzed with LC/MS/MS for plasma concentrations of dexmedetomidine, midazolam and butorphanol.

[4] = in the presence of MK-467 500 μg/kg, with medetomidine 20 μg/kg, butorphanol 100 μg/kg, midazolam 200 μg/kg in the same syringe
[5] = without MK-467, medetomidine, butorphanol, midazolam in the same syringe
[6] = parenteral extravascular administration, composition with MK-467

Row | SMILES | Heart rate, Pvo(2) and cardiac index compared with baseline (dogs [1]) | MAP, SVR and oxygen extraction ratio compared with baseline (dogs [1]) | Effect on bispectral index (BIS) values (dogs [2]) | Peak plasma concentration [3, 4] [ng/mL] | Time at which peak plasma concentration was reached from the IM administration ([3]; with MK-467) [min] | Time at which peak plasma concentration was reached from the IM administration ([3]; without MK-467) [min] | Peak plasma concentration [3, 5] [ng/mL] | Time at which maximum plasma concentration was reached [3, 6] [min] | Time at which maximum plasma concentration was reached ([3]; without MK-467) [min]
1 | Cc1cccc(C(C)c2cnc[nH]2)c1C (racemic) [medetomidine, (RS)-4-[1-(2,3-dimethylphenyl)ethyl]-3H-imidazole] | significantly lower | significantly higher |  |  |  |  |  |  | 
2 | Cc1cccc([C@H](C)c2cnc[nH]2)c1C [Dexmedetomidine, (S)-4-[1-(2,3-Dimethylphenyl)ethyl]-3H-imidazole] |  |  | decreased BIS-values |  |  |  |  |  | 
3 | Oc1ccc2c(c1)[C@@]13CCCC[C@@]1(O)[C@@H](C2)N(CC1CCC1)CC3 [butorphanol] |  |  |  | 17 | ≤ 10 | ≤ 30 | 11 | 10 | 30
4 | Cc1ncc2n1-c1ccc(Cl)cc1C(c1ccccc1F)=NC2 [midazolam] |  |  |  | 133 | ≤ 5 | ≤ 30 | 71 | 5 | 20

Reference: patent publication US11752140B2, “Compositions comprising substituted benzofuroquinolizine and psychoactive drug” (VETCARE OY, priority 2016, dated 2023)
